Source: patent US8968758B2, “Material for forming a multi-level antimicrobial surface coating and its preparation” (The Hong Kong University of Science and Technology …, priority 2008, dated 2015)

Assays:
S. aureus = test: Kirby-Bauer disk diffusion test; type: cell-based; details: wafer coated and dried
Description: Standard Kirby-Bauer disk diffusion test was performed using S. aureus. Sterile TSA plates were evenly inoculated with a loopful (ca. 100 μl) of S. aureus inoculum from the broth culture (ca. 10^6.cm^−3). […] A filter paper coated with 100 μl of 70% ethanol without drying was used as positive control
The Kirby-Bauer disk diffusion test was conducted, a standard antimicrobial test method using impregnated wafers to test whether particular bacteria are susceptible by comparing the area of clearing that surrounds the wafer where bacteria are not capable of growing (called a zone of inhibition).

[1] = system: Gram positive and Gram negative bacteria; test: Contact-killing on surface coated with composition B at various contact times; type: cell-based, B. subtilis, S. aureus, E. coli; details: 10 min contact, without encapsulation
Description: A hundred microliters of 10^7.cm^−3 bacteria cell suspension was placed in contact with the coated surface at ambient condition (23±2° C., 70% R.H.) in a sterilized biological safety cabinet (NuAire, Nu-425-400E). Three sets of runs of five samples each were carried out at the fixed contact times of 1, 5, 10 and 30 min. The samples were immersed into a primary subculture tube containing 20 ml neutralizer for 30 min to stabilize the surviving bacteria cells. The sterile neutralizer solution was freshly prepared by adding 1% (v/v) 0.1 M Na2S2O3 to 600 ml of 0.85% (w/v) normal saline (NaCl, RDH) solution containing 0.1% (v/v) (final concentration) of polyoxyethylenesorbitan monooleate (Tween 80) followed by autoclave at 121° C. for 20 min. A hundred microliters aliquots from the neutralizer were cultured on a TSA plate. The numbers of viable bacteria were counted after incubating the plates for 24 h at 37±0.1° C. The sample was drip-dried and transferred to a second subculture tube containing 20 ml of sterile nutrient broth (Nutrient broth no. 2, Oxoid) for 10 min. A hundred microliters aliquots from the nutrient broth were cultured on a TSA plate. The numbers of viable bacteria were counted after incubating the plates for 24 h at 37±0.1° C.

Compound | zone of inhibition (S. aureus) | antimicrobial effect (in words) [1]
ethanol [70% alcohol] | do not show zones of inhibition | –
[O][Cl+][O-] [chlorine dioxide] | – | ineffective
